Data taken from ChEMBL document CHEMBL5346930, “Discovery of novel N-benzylarylamide-dithiocarbamate based derivatives as dual inhibitors of tubulin polymerization and LSD1 that inhibit gastric cancers” (Eur J Med Chem, 2023).
Activity calls are given as the source filed them. The rule behind the calls is not given here.

Assays:
[1] = tested on: MGC-803; test: Induction of cell cycle arrest in human MGC-803 cells assessed as downregulation of Wee1 protein expression incubated for 48 hrs by Western blot analysis; type: functional, cell-based; details: dose 0-24 nmol/L
[2] = tested on: MGC-803; test: Inhibition of cell migration in human MGC-803 cells assessed as reduction in rate of wound healing at 4 nmol/L measured after 0 to 48 hrs; type: functional, cell-based; details: time 0-48 hrs
[3] = biological target: T1, Lysine-specific histone demethylase 1A (Homo sapiens, UniProt O60341); test: Inhibition of LSD1 in human SGC-7901 cells assessed as increase in H3K4me1 expression level at 0 to 30 nmol/L incubated for 48 hrs by Western blot analysis; type: cell-based; details: dose 0-30 nmol/L
[4] = tested on: SGC-7901; test: Antiproliferative activity against human SGC-7901 cells assessed as inhibition of cell growth incubated for 48 hrs by MTT assay; type: functional, cell-based; details: SGC-7901, 48 h
[5] = tested on: SGC-7901; test: Induction of apoptosis in human SGC-7901 cells assessed as increase in cleaved PARP level at 0 to 30 nmol/L incubated for 48 hrs by Western blot analysis; type: functional, cell-based; details: dose 0-30 nmol/L
[6] = Nephrotoxicity in BALB/c nude mouse xenografted with human MGC-803 cells assessed as effect on BUN level at 25 mg/kg/day, ip administered every day for 21 days; type: toxicity, organism-based; details: in vivo, 504 h, time 21 day
[7] = tested on: MGC-803; test: Induction of cell cycle arrest in human MGC-803 cells assessed as accumulation of cells at G2/M phase incubated for 48 hrs; type: functional, cell-based; details: dose 0-24 nmol/L
[8] = Nephrotoxicity in BALB/c nude mouse xenografted with human MGC-803 cells assessed as effect on creatinine level at 25 mg/kg/day, ip administered every day for 21 days; type: toxicity, organism-based; details: in vivo, 504 h, time 21 day
[9] = biological target: T1, Lysine-specific histone demethylase 1A; test: Inhibition of LSD1 in human MGC-803 cells assessed as increase in H3K4me1 expression level at 0 to 24 nmol/L incubated for 48 hrs by Western blot analysis; type: cell-based; details: dose 0-24 nmol/L
[10] = tested on: MGC-803; test: Induction of morphological changes in human MGC-803 cells assessed as increase in proportion of dead cells at 0 to 24 nmol/L incubated for 48 hrs by calcein-AM/PI staining based analysis; type: functional, cell-based; details: dose 0-24 nmol/L
[11] = tested on: DU-145; test: Antiproliferative activity against human DU-145 cells assessed as inhibition of cell growth incubated for 48 hrs by MTT assay; type: functional, cell-based; details: DU-145, 48 h
[12] = tested on: NCI-H520; test: Antiproliferative activity against human NCI-H520 cells assessed as inhibition of cell growth incubated for 48 hrs by MTT assay; type: functional, cell-based; details: NCI-H520, 48 h
[13] = tested on: SGC-7901; test: Induction of apoptosis in human SGC-7901 cells assessed as increase in total apoptotic cells incubated for 48 hrs by Annexin-FITC/PI staining based flow cytometry analysis; type: functional, cell-based; details: dose 0-30 nmol/L
[14] = tested on: SGC-7901; test: Induction of morphological changes in human SGC-7901 cells assessed as increase in proportion of dead cells at 0 to 30 nmol/L incubated for 48 hrs by calcein-AM/PI staining based analysis; type: functional, cell-based; details: dose 0-30 nmol/L
[15] = tested on: MGC-803; test: Induction of apoptosis in human MGC-803 cells assessed as increase in cleaved PARP level at 0 to 24 nmol/L incubated for 48 hrs by Western blot analysis; type: functional, cell-based; details: dose 0-24 nmol/L
[16] = tested on: SGC-7901; test: Induction of apoptosis in human SGC-7901 cells assessed as increase in cleaved caspase-7 level at 0 to 30 nmol/L incubated for 48 hrs by Western blot analysis; type: functional, cell-based; details: dose 0-30 nmol/L
[17] = tested on: MGC-803; test: Induction of apoptosis in human MGC-803 cells assessed as increase in cleaved caspase-3 level at 0 to 24 nmol/L incubated for 48 hrs by Western blot analysis; type: functional, cell-based; details: dose 0-24 nmol/L
[18] = biological target: Tubulin (Homo sapiens) (UniProt P68371+Q9H4B7+P0DPH7+P68366+Q13509+Q71U36+P04350+Q3ZCM7+P07437+P68363+Q9BQE3+Q6PEY2+Q13885+Q9BVA1+Q9BUF5); test: Inhibition of tubulin polymerization in human SGC-7901 cells assessed as destruction of microtubule network incubated for 48 hrs by immunofluorescence staining based fluorescence microscopic analysis; type: cell-based; details: dose 0-30 nmol/L
[19] = biological target: T1, Lysine-specific histone demethylase 1A; test: Inhibition of LSD1 in human SGC-7901 cells assessed as increase in H3K4me2 expression level at 0 to 30 nmol/L incubated for 48 hrs by Western blot analysis; type: cell-based; details: dose 0-30 nmol/L
[20] = tested on: SGC-7901; test: Induction of apoptosis in human SGC-7901 cells assessed as downregulation of Bcl-2 protein expression incubated for 48 hrs by Western blot analysis; type: functional, cell-based; details: dose 0-30 nmol/L
[21] = tested on: MGC-803; test: Antiproliferative activity against human MGC-803 cells assessed as inhibition of cell growth at 10 to 30 nM by MTT assay; type: functional, cell-based; details: dose 10-30 nM, time 0-60 hrs, TDE = time-dependent effect
[22] = tested on: MCF7; test: Antiproliferative activity against human MCF7 cells assessed as inhibition of cell growth incubated for 48 hrs by MTT assay; type: functional, cell-based; details: MCF7, 48 h
[23] = tested on: SGC-7901; test: Induction of cell cycle arrest in human SGC-7901 cells assessed as accumulation of cells at G2/M phase incubated for 48 hrs; type: functional, cell-based; details: dose 0-30 nmol/L
[24] = tested on: MGC-803; test: Induction of cell cycle arrest in human MGC-803 cells assessed as reduction in CDC2 phosphorylation at Thr161 residue at 0 to 24 nmol/L incubated for 48 hrs by Western blot analysis; type: functional, cell-based; details: dose 0-24 nmol/L
[25] = biological target: T2, Tubulin beta (Homo sapiens) (UniProt P68371+Q9H4B7+Q13509+P04350+Q3ZCM7+P07437+Q13885+Q9BVA1+Q9BUF5+A6NNZ2); test: Binding affinity to colchicine binding site of beta-tubulin in human MGC-803 cells assessed as inhibition of beta-tubulin alkylation by measuring disappearance of beta-tubulin-EBI adduct band pretreated for 2 hrs followed by EBI addition and measured after 2 hrs by Western blot analysis; type: cell-based; details: dose 0-10 µM, time 4.0 hrs
[26] = tested on: MGC-803; test: Induction of apoptosis in human MGC-803 cells assessed as total apoptotic cells at 24 nmol/L incubated for 48 hrs by Annexin-FITC/PI staining based flow cytometry analysis (reference value: 10.9%); type: functional
[27] = biological target: Tubulin; test: Inhibition of tubulin polymerization (unknown origin) assessed as reduction in fluorescence intensity measured every 60 secs for 1 hr by microplate reader analysis; type: protein-complex assay, Homo sapiens
[28] = tested on: SGC-7901; test: Induction of cell cycle arrest in human SGC-7901 cells assessed as downregulation of CDC2 protein expression incubated for 48 hrs by Western blot analysis; type: functional, cell-based; details: dose 0-30 nmol/L
[29] = tested on: MGC-803; test: Induction of cell cycle arrest in human MGC-803 cells assessed as reduction in cyclin B1 protein expression incubated for 48 hrs by Western blot analysis; type: functional, cell-based; details: dose 0-24 nmol/L
[30] = tested on: SGC-7901; test: Induction of apoptosis in human SGC-7901 cells assessed as downregulation of Mcl-1 protein expression incubated for 48 hrs by Western blot analysis; type: functional, cell-based; details: dose 0-30 nmol/L
[31] = tested on: MGC-803; test: Induction of apoptosis in human MGC-803 cells assessed as increase in cleaved caspase-7 level at 0 to 24 nmol/L incubated for 48 hrs by Western blot analysis; type: functional, cell-based; details: dose 0-24 nmol/L
[32] = tested on: A549; test: Antiproliferative activity against human A549 cells assessed as inhibition of cell growth incubated for 48 hrs by MTT assay; type: functional, cell-based; details: A549, 48 h
[33] = biological target: T2, Tubulin beta (Homo sapiens); test: Binding affinity to colchicine binding site of beta-tubulin in human SGC-7901 cells assessed as inhibition of beta-tubulin alkylation by measuring disappearance of beta-tubulin-EBI adduct band pretreated for 2 hrs followed by EBI addition and measured after 2 hrs by Western blot analysis; type: cell-based; details: dose 0-10 µM, time 4.0 hrs
[34] = tested on: SGC-7901; test: Inhibition of cell migration in human SGC-7901 cells assessed as reduction in rate of wound healing at 4 nmol/L measured after 0 to 48 hrs; type: functional, cell-based; details: time 0-48 hrs

## COc1ccc(CN(C(=O)CSC(=S)N2CCN(c3ccc(N)cc3)CC2)c2cc(OC)c(OC)c(OC)c2)cc1O
[1]
  Activity: Dose-Dependent Effect
[2]
  inhibition: Active
[3]
  inhibition: Active
[4]
  IC50: 19.5 nM
[5]
  Activity: Active
[6]
  Activity: Non-Toxic
[7]
  Activity: Dose-Dependent Effect
[8]
  Activity: Non-Toxic
[9]
  inhibition: Active
[10]
  Activity: Active
[11]
  IC50: 49.9 nM
[12]
  IC50: 22.5 nM
[13]
  Activity: Dose-Dependent Effect
[14]
  Activity: Active
[15]
  Activity: Active
[16]
  Activity: Active
[17]
  Activity: Active
[18]
  inhibition: Dose-Dependent Effect
[19]
  inhibition: Active
[20]
  Activity: Dose-Dependent Effect
[21]
  Activity: Tde
[22]
  IC50: 34.4 nM
[23]
  Activity: Dose-Dependent Effect
[24]
  Activity: Active
[25]
  Activity: Dose-Dependent Effect
[26]
  Activity: 85.5%
[27]
  IC50: 3060 nM
[28]
  Activity: Dose-Dependent Effect
[29]
  Activity: Dose-Dependent Effect
[30]
  Activity: Dose-Dependent Effect
[31]
  Activity: Active
[32]
  IC50: 254 nM
[33]
  Activity: Dose-Dependent Effect
[34]
  inhibition: Active
